The subject of assay [1] is methicillin-resistant Staphylococcus aureus (MRSA). As to the kind of experiment: Determination of MIC values (BHI broth, 96 well microtiter plate). It counts as cell-based. The conditions noted are these: Staphylococcus aureus, MRSA, BHI broth, read-out: MIC MRSA. Here is the method: (§1) Stock solutions of compounds are prepared with a concentration of 10 mg/mL. These solutions are then diluted 1:4 to give a concentration of 2.5 mg/mL. The compounds are then serially diluted 1:2 for 6 iterations. The concentrations made for each compound are 2.5, 1.25, 0.625, 0.3125, 0.156, 0.078, and 0.039 mg/mL. A control sample (no compound) is run along with each compound tested. All dilutions are made in DMSO.
(§2) All wells of a 96 well microtiter plate are filled with 100 μL of BHI (Brain-Heart Infusion) broth. Columns on the plate are labeled 1-12, and rows are labeled A-H. Each column of wells is used to test one series of diluted compounds. Into each well of 100 μL of BHI broth, 1 μL of diluted compound is placed for a 1:100 dilution. This makes the final concentration of each drug series 25, 12.5, 6.25, 3.125, 1.56, 0.78, 0.39, and 0 μg/mL.
(§3) Test Organism: A sterile 15 mL screw cap tube is filled wth 3 mL of BHI broth. Next, 2-3 colonies of test organism are inoculated into the tube. The tube is then incubated at 37° C. in a CO2 (approx. 7%) atmosphere jar. The organisms are allowed to grow to the density of a 0.5 McFarland standard (10^8 cells/mL). The organism is then inoculated into each well of the microtiter plate containing the diluted compounds to be tested for MIC. The inoculum is 1 μL in volume and represents 10^5 to 10^6 cells/mL.
(§4) After inoculation the plates are covered and incubated at 37° C. and approx. 7-10% CO2 atmosphere overnight (about 16 hours). The plates are then observed for growth, the well with the lowest concentration of drug and no observable growth represents the well determining the MIC.

Assay [2] relates to vancomycin-resistant Enterococcus spp. (VRE). Described as above. It counts as cell-based. The conditions noted are these: Enterococcus, VRE, BHI broth, read-out: MIC VREF. As for the experimental part:
as §1, §2, §3, §4

[3] abbreviates: 16 h, 37° C., overnight (about 16 hours).

One may read the MIC as the lowest concentration found to suppress growth.

Where two headings read alike, the source gives them in different places.

As to `COc1ccc(NC(=O)N2CCN(C(=O)c3cc(-c4c[nH]c5ccc(Br)cc45)nc4ccccc34)CC2)c(OC)c1` [Example 63], the MIC in assay [1] (setting [3]) and in assay [2] (setting [3]) was > 25 µg/mL throughout.

As for `O=C(Nc1ccccc1C(F)(F)F)N1CCN(C(=O)c2cc(-c3c[nH]c4ccc(Br)cc34)nc3ccccc23)CC1` [Example 64], the minimal inhibitory concentration (MIC) in assay [1] (setting [3]) and in assay [2] (setting [3]) was > 25 µg/mL in each case.

As to `NCc1ccc(CNC(=O)c2cc(-c3c[nH]c4ccc(Br)cc34)nc3ccc(Br)cc23)cc1` [Example 120], the MIC in assay [1] (setting [3]) and in assay [2] (setting [3]) was < 7 µg/mL each time.

On to `NCCNC(=O)c1cc(-c2c[nH]c3ccc(Br)cc23)nc2cc(Cl)c(C#CCN3CCCCC3)cc12` [Example 488], for which the MIC in assay [1] (16 h, 37° C., about 16 hours) is < 7 µg/mL.

For the compound `NCc1ccc(CNC(=O)c2cc(-c3c[nH]c4ccc(F)cc34)nc3ccccc23)cc1` [Example 15], the MIC in assay [1] (setting [3]) was < 25 µg/mL; in assay [2] (setting [3]) it was > 25 µg/mL.

For the compound `O=C(c1cc(-c2c[nH]c3ccc(Br)cc23)nc2ccccc12)N1CCCNCC1` [Example 14], the MIC in assay [1] (setting [3]) and in assay [2] (setting [3]) was < 25 µg/mL throughout.

In the case of `NCc1ccc(CNC(=O)c2cc(-c3ccccc3)nc3ccccc23)cc1` [Example 81], the MIC in assay [1] (setting [3]) and in assay [2] (setting [3]) was > 25 µg/mL in each case.

In the case of `NC(=O)C(Cc1ccc2ccccc2c1)NC(=O)c1cc(-c2c[nH]c3ccccc23)nc2ccccc12` (stereo not shown) [Example 145], the MIC is < 7 µg/mL in assay [1] (setting [3]) and < 25 µg/mL in assay [2] (setting [3]).

Consider `O=[N+]([O-])c1ccc2[nH]cc(-c3ccc4ccccc4n3)c2c1` [Example 186], for which the MIC in assay [1] (setting [3]) and in assay [2] (setting [3]) was > 25 µg/mL throughout.

Turning to `O=C(c1cc(-c2c[nH]c3ccc(Br)cc23)nc2ccccc12)N1CCN(c2ccc(F)cc2)CC1` [Example 32], the MIC in assay [1] (setting [3]) and in assay [2] (setting [3]) was < 25 µg/mL each time.

With `NCc1ccc(CNC(=O)c2cc(-c3csc4ccc(Cl)cc34)nc3ccc(I)cc23)cc1` [Example 140], the MIC in assay [1] (setting [3]) was > 25 µg/mL; in assay [2] (setting [3]), < 25 µg/mL.

Turning to `O=C(O)c1cc(-c2c[nH]c3ccc(Br)cc23)nc2ccccc12` [Example 27], the MIC in assay [1] (setting [3]) and in assay [2] (setting [3]) was > 25 µg/mL in each case.

For `O=C(Nc1ccc(O)cc1)c1cc(-c2c[nH]c3ccc(Br)cc23)nc2ccccc12` [Example 37], the MIC in assay [1] (setting [3]) is < 7 µg/mL; in assay [2] (setting [3]) it was > 25 µg/mL.

For the compound `O=C(c1cc(-c2c[nH]c3ccc(Br)cc23)nc2ccc(Cl)cc12)N1CCCNCC1` [Example 135], the MIC in assay [1] (setting [3]) and in assay [2] (setting [3]) was < 7 µg/mL in each case.

With `NC1CCN(C(=O)c2cc(-c3c[nH]c4ccc(Br)cc34)nc3ccccc23)C1` (stereo not shown) [Example 43], the MIC in assay [1] (setting [3]) and in assay [2] (setting [3]) was < 25 µg/mL each time.

Consider `COc1ccc2[nH]cc(-c3cc(C(=O)NCc4ccc(CN)cc4)c4ccccc4n3)c2c1` [Example 18], for which the MIC in assay [1] (setting [3]) and in assay [2] (setting [3]) was > 25 µg/mL in each case.

Regarding `O=C(c1cc(-c2c[nH]c3ccc(Br)cc23)nc2ccccc12)N1CCC(O)(c2ccccc2)CC1` [Example 36], the MIC in assay [1] (setting [3]) and in assay [2] (setting [3]) was < 25 µg/mL each time.

Regarding `CNC1CCN(C(=O)c2cc(-c3c[nH]c4ccc(Br)cc34)nc3ccccc23)CC1` [Example 31], the minimum inhibitory concentration (MIC) in assay [1] (setting [3]) and in assay [2] (setting [3]) was < 25 µg/mL throughout.

In the case of `COc1cc2c(-c3ccc4cc(Cl)ccc4n3)cn(C)c2cc1OC` [Example 222], the MIC in assay [1] (overnight 37° C.) is > 25 µg/mL; in assay [2] (VREF, overnight 37° C.), > 25 µg/mL.

In the case of `Cn1cc(-c2ccc3ccccc3n2)c2cc(Br)ccc21` [Example 178], the MIC in assay [1] (setting [3]) and in assay [2] (setting [3]) was > 25 µg/mL in each case.

On to `Fc1cccc2[nH]cc(-c3ccc4cc(Cl)ccc4n3)c12` [Example 192], for which the MIC in assay [1] (setting [3]) and in assay [2] (setting [3]) was > 25 µg/mL throughout.

Consider `CN(CC#Cc1cccc2c(C(=O)NCc3ccc(CN)cc3)cc(-c3c[nH]c4ccc(Br)cc34)nc12)C1CCCCC1` [Example 265], for which the MIC was < 7 µg/mL in assay [1] (overnight 37° C.) and < 7 µg/mL in assay [2] (VREF, overnight 37° C.).

As to `NCCCCNC(=O)c1cc(-c2c[nH]c3ccc(Br)cc23)nc2ccccc12` [compound 58], the MIC in assay [1] (setting [3]) and in assay [2] (setting [3]) was < 25 µg/mL each time.

For the compound `Cc1cc(Cl)cc2c(C(=O)NCc3ccc(CN)cc3)cc(-c3c[nH]c4ccc(Br)cc34)nc12` [Example 56], the MIC in assay [1] (setting [3]) and in assay [2] (setting [3]) was < 25 µg/mL throughout.

With `Cn1cc(-c2ccc3ccccc3n2)c2cc(Cl)ccc21` [Example 177], the MIC in assay [1] (setting [3]) and in assay [2] (setting [3]) was > 25 µg/mL in each case.

Turning to `NC1CCCCC1NC(=O)c1cc(-c2c[nH]c3ccc(Br)cc23)nc2ccccc12` (stereo not shown) [compound 10], the MIC in assay [1] (setting [3]) and in assay [2] (setting [3]) was < 25 µg/mL each time.

On to `O=C(NCCN1CCCC1)c1cc(-c2c[nH]c3ccc(Br)cc23)nc2ccccc12` [Example 44], for which the MIC in assay [1] (setting [3]) and in assay [2] (setting [3]) was < 25 µg/mL each time.

On to `O=C(c1cc(-c2c[nH]c3ccc(Br)cc23)nc2ccccc12)N1CCC(N2CCCCC2)CC1` [Example 47], for which the MIC in assay [1] (setting [3]) and in assay [2] (setting [3]) was < 25 µg/mL each time.

For `O=C(NC1CCOC1=O)c1cc(-c2c[nH]c3ccc(Br)cc23)nc2ccccc12` (stereo not shown) [Example 34], the MIC in assay [1] (setting [3]) and in assay [2] (setting [3]) was < 25 µg/mL in each case.

Take `O=C(CCC(=O)N1CCN(C(=O)c2cc(-c3c[nH]c4ccc(Br)cc34)nc3ccccc23)CC1)N1CCN(C(=O)c2cc(-c3c[nH]c4ccc(Br)cc34)nc3ccccc23)CC1` [Example 62]: the MIC in assay [1] (setting [3]) and in assay [2] (setting [3]) was > 25 µg/mL throughout.

For the compound `NCc1ccc(CNC(=O)c2cc(-c3c[nH]c4cccc(F)c34)nc3ccccc23)cc1` [Example 79], the MIC in assay [1] (setting [3]) and in assay [2] (setting [3]) was > 25 µg/mL each time.

On to `NCCC(=O)NCc1ccc(CNC(=O)c2cc(-c3c[nH]c4ccc(Br)cc34)nc3ccccc23)cc1` [Example 72], for which the MIC in assay [1] (setting [3]) and in assay [2] (setting [3]) was > 25 µg/mL each time.

`NCc1ccc(CNCc2cc(-c3c[nH]c4ccc(Br)cc34)nc3ccccc23)cc1` [Example 39]: the MIC in assay [1] (setting [3]) and in assay [2] (setting [3]) was < 7 µg/mL throughout.

In the case of `NCc1ccc(CNC(=O)c2cc(-c3c[nH]c4cc(Cl)ccc34)nc3ccccc23)cc1` [Example 20], the MIC in assay [1] (setting [3]) and in assay [2] (setting [3]) was < 25 µg/mL each time.

On to `NCC1CCCC(CNC(=O)c2cc(-c3c[nH]c4ccc(Br)cc34)nc3ccccc23)C1` (stereo not shown) [compound 5], for which the MIC in assay [1] (setting [3]) and in assay [2] (setting [3]) was < 7 µg/mL in each case.

For `NCCCCCCNC(=O)c1cc(-c2c[nH]c3ccc(Br)cc23)nc2ccccc12` [Example 59], the MIC in assay [1] (setting [3]) and in assay [2] (setting [3]) was < 7 µg/mL throughout.

In the case of `Cc1cccc2c(-c3ccc4ccccc4n3)c[nH]c12` [Example 189], the MIC in assay [1] (setting [3]) and in assay [2] (setting [3]) was < 25 µg/mL throughout.

On to `NCc1cccc(CNC(=O)c2cc(-c3c[nH]c4ccc(Br)cc34)nc3ccc(Br)cc23)c1` [Example 125], for which the minimal inhibitory concentration (MIC) in assay [1] (setting [3]) and in assay [2] (setting [3]) was < 7 µg/mL each time.

For `Cc1ccc2nc(-c3ccncc3)cc(C(=O)NCc3ccc(CN)cc3)c2c1` [Example 95], the MIC in assay [1] (setting [3]) and in assay [2] (setting [3]) was > 25 µg/mL each time.

`NCc1ccc(CNC(=O)c2cc(-c3c[nH]c4ccc(Br)cc34)nc3ccc(CO)cc23)cc1` [Example 100]: the MIC in assay [1] (setting [3]) and in assay [2] (setting [3]) was > 25 µg/mL throughout.

With `NCC1CCCC(CNC(=O)c2cc(-c3c[nH]c4ccc(Br)cc34)nc3cc(F)ccc23)C1` (stereo not shown) [Example 255], the MIC in assay [1] (overnight 37° C.) is < 7 µg/mL; in assay [2] (VREF, overnight 37° C.), < 7 µg/mL.

For the compound `COc1ccc2[nH]cc(-c3ccc4ccccc4n3)c2c1` [Example 185], the MIC in assay [1] (setting [3]) is < 25 µg/mL; in assay [2] (setting [3]) it was > 25 µg/mL.

`NCCCCCNC(=O)c1cc(-c2c[nH]c3ccc(Br)cc23)nc2ccccc12` [Example 41]: the MIC in assay [1] (setting [3]) and in assay [2] (setting [3]) was < 25 µg/mL in each case.

As for `Clc1ccc2nc(-c3c(-c4ccccc4)[nH]c4ccccc34)ccc2c1` [Example 203], the MIC in assay [1] (overnight 37° C.) is > 25 µg/mL; in assay [2] (VREF, overnight 37° C.), > 25 µg/mL.

Regarding `NCCCN1CCN(CCCNC(=O)c2cc(-c3c[nH]c4ccc(Br)cc34)nc3ccc(I)cc23)CC1` [Example 70], the figures for the MIC in assay [1] (setting [3]) and in assay [2] (setting [3]) were < 7 µg/mL and < 25 µg/mL, respectively.

Take `Cc1c(-c2ccc3cc(Cl)ccc3n2)c2ccccc2n1C` [Example 215]: the MIC in assay [1] (overnight 37° C.) is < 7 µg/mL; in assay [2] (VREF, overnight 37° C.) it was < 25 µg/mL.

As for `Cn1cc(-c2ccc3cc(Cl)ccc3n2)c2ccc(F)cc21` [Example 212], the MIC is > 25 µg/mL in assay [1] (overnight 37° C.) and > 25 µg/mL in assay [2] (VREF, overnight 37° C.).

Take `COC(=O)c1ccc2nc(-c3c[nH]c4ccc(Br)cc34)cc(C(=O)NCc3ccc(CN)cc3)c2c1` [Example 105]: the MIC was > 25 µg/mL in assay [1] (setting [3]) and < 25 µg/mL in assay [2] (setting [3]).

On to `NCc1ccc(CNC(=O)c2cc(-c3ccccn3)nc3ccccc23)cc1` [Example 93], for which the MIC in assay [1] (setting [3]) and in assay [2] (setting [3]) was > 25 µg/mL throughout.

The record behind these values is patent US6376670B1, “Quinoline-indole antimicrobial agents, uses and compositions related thereto” (Sepracor Inc., priority 1997, dated 2002).
